This note sets out measurements from patent US20070265274A1, “4-(4-METHYLPIPERAZIN-1-YLMETHYL)-N-[4-METHYL-3-(4-PYRIDIN-3-YL)PYRIMIDIN-2-YLAMINO)PHENYL]-BENZAMIDE FOR TREATING MUTATED-RET KINASE ASSOCIATED DISEASES” (priority 2002, published 2007).

Each structure is given as a SMILES string. Like-named read-outs stand apart in the source and are kept apart here.

Assay [1] deals with NIH3T3 cells expressing constitutively active RET MEN2A (RETC634 mutation). Conditions: for % of cell decrease: SALT I 500 nM, 9 days. The method, then:
The RETC634 mutation is the most common germline mutation of the RET kinase occurring in 85% of multiple endocrine neoplasias type 2A. The effect of SALT I on growth of NIH3T3 cells stably expressing a constitutively active form of the RET kinase (RETC634 mutation) is investigated.
NIH3T3 cells expressing constitutively active RET MEN2A are allowed to plate overnight in 6-well plates. They are then grown in the presence of 1 or 5% serum with SALT I 500 nM or with a vehicle solvent (control) for 9 days, with media changes every 3 days. Cells are counted after harvesting with EDTA/trypsin solution on day 9 after initiation of treatments.

In the next assay the test system is RET/PTC3. The conditions noted are these: 100 nM SALT I; 25 min at room temperature; γP32-ATP.
Assay [2] has as its system PLCγ phosphorylation by RET/PTC. Conditions: 250 nM SALT I for 24 h; in comparison with samples without SALT I.
Protocol: To further explore the effect of SALT I on RET kinase activity, pretreatment with SALT I on PLCγ phosphorylation is examined.
Ret-PTC3 cells are seeded at 10^5 cells/well in 6-well Corning plates. After 3 days, cells are treated with or without doxycycline in the presence of 250 nM of SALT I for 24 h. Cells are rinsed twice with cold (phosphate buffered saline) PBS containing 0.1 mM sodium orthovanadate, and left for 20 minutes in ice-cold RIPA buffer shaking gently at 4° C. Cell lysates are collected by centrifugation at 10,600 g for 20 min at 4° C. Protein assays are performed on aliquots of supernatants by the Coomassie Blue assay (Pierce, Rockford, Ill.). Western blot analysis are performed by running 100 μg of protein on SDS PAGE (5%), transfer to nitrocellulose membrane and probing initially with anti-phospho PLCγ antibody (Cell Signaling) and then with anti-PLCγ (Cell Signaling) for normalization.

Protocol for RET/PTC3: Cell Line: PCCL3, a rat thyroid cell line, is maintained in H4 complete medium consisting of Coon's medium/F12 high zinc supplemented with 5% FBS, 0.3 mg/ml L-glutamine, 1 mU/ml TSH, 10 μg/ml insulin, 5 μg/ml apo-transferrin, 10 nM hydrocortisone, and penicillin/streptomycin. […] Stable transfections are performed first to establish clonal lines constitutively expressing the transactivator rtTA (composed of a fusion of the rtetR DNA binding domain and the VP16 activation domain). Individual rtTA-expressing clones are then explored for doxycyclin-inducible expression by transient transfection with a luciferase reporter construct under control of a tet-operator.
Confluent T-75 flasks of RET/PTC3 (PCCL3) cells incubated with or without doxycycline for 24 hours are washed with ice cold PBS containing 0.2 mM sodium ortho-vanadate. […] After the second wash, the reactions are boiled in 35 μl Laemmli buffer for 10 min, the proteins are subjected to SDS-PAGE (7.5%) and their phosphorylation measured by PhosphoImager densitrometry (Molecular Dynamics, Sunnyvale, Calif.) after transfer to nitrocellulose membranes. Protein loading is then normalized to total RET kinase protein determined by Western blot analysis using either the goat polyclonal anti-RET kinase antibody (Santa Cruz) or a mouse monoclonal (University of Cincinnati).

Take `CS(=O)(=O)O.Cc1ccc(NC(=O)c2ccc(CN3CCN(C)CC3)cc2)cc1Nc1nccc(-c2cccnc2)n1` [SALT I]: the “% of cell decrease” value worked out at 42% in assay [1] (1% serum) and 15% in assay [1] (5% serum). Also, the “growth of RET kinase-transformed NIH3T3 fibroblasts” value in assay [1] (result in words) is recorded as “inhibits the growth”. In addition, the “inhibition of autophosphorylation of RET/PTC3” value in the assay on RET/PTC3 was found to be 40%. In addition, the “inhibition of phosphorylation of PLCγ” value in assay [2] came to 28%.
